This is an account of results in PMC6277555, “Short Symmetric-End Antimicrobial Peptides Centered on β-Turn Amino Acids Unit Improve Selectivity and Stability” (Frontiers in Microbiology, 2018).

One data set has as its system E. coli. Briefly: Time killing assay. The conditions noted are these: mean of three independent assays. The data set is classed as cell-based, Escherichia coli. As for the experimental part: (§1) The ability of peptides to kill bacterial cells was further investigated by analyzing the fraction of cell survival upon peptide treatment at various exposure times according to a previously described method ([Wiradharma et al., 2012]). Briefly, E. coli and S. aureus were treated at MIC and 2 × MIC concentrations with peptides. At various time periods (0, 5, 10, 30, 60, 90, 120, and 150 min), microbial suspensions were diluted at three different dilutions and plated on MHA plates. Microbial colonies were formed and counted after 24 h of incubation. The results were presented as the mean data from three independent assays.

For another data set, the system named is E. coli UB1005. It counts as cell-based, Escherichia coli. The method, then: (§2) The minimal inhibitory concentration (MIC) was determined according to a previously described method ([Chou et al., 2016]). Bacteria were cultured overnight to mid-log phase in MHB at 37°C and then diluted to give final concentrations ranging from 2 × 10^5 to 7 × 10^5 CFU/mL. Then, 50 μL of serial twofold dilutions of the peptides were added to each well in 96-well microtiter plates with a mixed solution containing 0.01% acetic acid and 0.2% bovine serum albumin (BSA, Sigma) was used to dissolve and dilute the peptides. Then, equal amounts of bacterial aliquots were incubated with the above peptide solution for 18–24 h at 37°C. The experiment was performed in triplicate using three replicates for each peptide and each bacterium. The broth was employed as a negative control and the broth with microbial cells was used as a positive control. The lowest concentration of peptide that prevented visible turbidity was defined as the MIC.

Another data set relates to E. coli ATCC25922. The data set is classed as cell-based, Escherichia coli. The method, then: as §2, with “18-24” for “18–24”, “MIC. The condition sensitivity of peptides was tested in an MIC assay in different environments, including salt sensitivity, thermal sensitivity and different pH values similar to our previous method ([[…] et al., 2008]; [Ma et al., 2012]). […] For the heat resistance experiments, the peptides were incubated at 100°C for 30 min and cooled on ice for 10 min. […] The determination methods for these MIC assays were same as described above. To test the effects of serum on the antimicrobial activities of the peptides, human serum was dissolved in MHB to reach final concentrations of 25 and 50%. The determination methods for these MIC assays were same as described above.” for “MIC.”

In another data set the test system is S. aureus. In words: Time killing assay. The data set is classed as cell-based, Staphylococcus aureus. Particulars: mean of three independent assays. The method, then: as §1
Data set [1] is described as follows: RP-HPLC retention time as measure of relative hydrophobicity. It counts as physicochemical. The conditions noted are these: analytical RP-HPLC; hydrophobicity increases with retention time. As for the experimental part: These peptides' […] identified via matrix-assisted laser desorption/ionization time-of-flight mass spectrometry (MALDI-TOF MS, Linear Scientific Inc., United States), using α-cyano-4-hydroxycinnamic acid as the matrix. […] Quantitative peptides were dissolved in deionized water and stored at -20°C before the assessments. The rest of the peptides were stored as powders at -20°C to prevent peptide degradation. The structures and molecular weights of the peptides were verified by MALDI-TOF MS. […] The relative hydrophobicity of the symmetric-end peptides was reliably reflected by their different HPLC retention times, and the hydrophobicity increased with increasing HPLC retention times ([Lee et al., 2014]; [Zhu et al., 2014]). The HPLC retention times for […]

For another data set, the system named is S. aureus ATCC 29213. It counts as cell-based, Staphylococcus aureus. The method, then:
as §2, with “18-24” for “18–24”, “MIC. The condition sensitivity of peptides was tested in an MIC assay in different environments, including salt sensitivity, thermal sensitivity and different pH values similar to our previous method ([[…] et al., 2008]; [Ma et al., 2012]). […] For the heat resistance experiments, the peptides were incubated at 100°C for 30 min and cooled on ice for 10 min. […] The determination methods for these MIC assays were same as described above. To test the effects of serum on the antimicrobial activities of the peptides, human serum was dissolved in MHB to reach final concentrations of 25 and 50%. The determination methods for these MIC assays were same as described above.” for “MIC.”

In a further data set the test system is S. pullorum C79-13. The data set is classed as cell-based, Salmonella pullorum. The method, then:
as §2

The subject of the next data set is S. aureus ATCC 43300. The data set is classed as cell-based, Staphylococcus aureus. As for the experimental part:
as §2

The next data set deals with S. faecalis ATCC 29212. The data set is classed as cell-based, Streptococcus faecalis. The method, then: as §2
For the next data set, the system named is B. subtilis CMCC 63501. It counts as cell-based, Bacillus subtilis. The method, then:
as §2

Data set [2] deals with S. epidermidis ATCC 12228. It counts as cell-based, Staphylococcus epidermidis. The method, then:
as §2

In the next data set the test system is S. typhimurium ATCC 7731. It counts as cell-based, Salmonella entericaserovar Typhimurium. As for the experimental part: as §2
A further data set deals with B. pyocyaneum ATCC 27853. The data set is classed as cell-based, Bacterium pyocyaneum. As for the experimental part:
as §2

A further data set has as its system hRBCs. In words: Hemolytic activity. The data set is classed as cell-based, human. Particulars: peptide concentration resulting in 5% hemolysis of hRBCs; PBS, 1 h, 37°C. As for the experimental part: (§3) The hemolytic activity of the peptides was detected using a previously described modified method ([Wang et al., 2015]). One milliliter of fresh hRBCs was obtained from a healthy donor (Zhihua Wang, Harbin, China) in a polycarbonate tube containing heparin. The collected hRBCs were centrifuged at 1000 × g for 5 min at 4°C and resuspended in PBS buffer (pH 7.2). The hRBCs were washed three times and then incubated with an equal volume of the respective peptide dissolved in PBS for 1 h at 37°C. Then, the hRBC suspension was placed into a 96-well microtiter plater with 50 μL of tested peptide solution at different concentrations and the mixture was incubated for 1 h at 37°C. […] The minimum hemolytic concentrations (MHCs) were defined as the peptide concentrations resulting in 5% hemolysis.

The test system of data set [3] is Gram-negative and Gram-positive bacterial strains. Briefly: Geometric mean of MICs and therapeutic index. The data set is classed as cell-based. Particulars: for GM (geometric mean of the MIC values): all ten tested strains; for Therapeutic index: from MHC and GM. As for the experimental part:
as §3, §2

≈ marks a conversion by molar mass, not a printed value. No end group written: not given here.

Usually MIC stands for the least concentration at which growth counts as inhibited. A high value points to a need for much substance.

As to `CC(C)C[C@H](NC(=O)[C@H](CCCNC(=N)N)NC(=O)CNC(=O)CNC(=O)[C@@H](N)CCCNC(=N)N)C(=O)N[C@H]1CSSC[C@@H](C(=O)N[C@H](C(=O)NCC(=O)N[C@@H](CCCNC(=N)N)C(N)=O)C(C)C)NC(=O)[C@H](C(C)C)NC(=O)[C@@H]2CSSC[C@H](NC(=O)[C@H](Cc3ccc(O)cc3)NC1=O)C(=O)N[C@@H](CCCNC(=N)N)C(=O)N[C@@H](CCCNC(=N)N)C(=O)N[C@@H](CCCNC(=N)N)C(=O)N[C@@H](Cc1ccccc1)C(=O)N2` [PG-1, reference compound], the “Time to kill E. coli” value with E. coli (peptide at 1 × MIC) and with E. coli (peptide at 2 × MIC) was 10 min in each case. Further, the minimal inhibitory concentration (MIC) against E. coli UB1005 is 2 µM (≈ 4.31 µg/mL); against E. coli ATCC25922 (ATCC25922), 2 µM (≈ 4.31 µg/mL); against S. aureus ATCC 29213 (ATCC 29213) it was 8 µM (≈ 17.2 µg/mL); in the data set on S. pullorum C79-13 it was 2 µM (≈ 4.31 µg/mL); with S. aureus ATCC 43300, 2 µM (≈ 4.31 µg/mL); in the data set with S. faecalis ATCC 29212 it was 16 µM (≈ 34.5 µg/mL). Further, the MIC against B. subtilis CMCC 63501 came out at 8 µM (≈ 17.2 µg/mL); in [2] it was 16 µM (≈ 34.5 µg/mL); against S. typhimurium ATCC 7731, 8 µM (≈ 17.2 µg/mL); against B. pyocyaneum ATCC 27853, 16 µM (≈ 34.5 µg/mL). Besides, the “MIC, CaCl2” value turned out to be 4 µM (≈ 8.62 µg/mL) in the data set with E. coli ATCC25922 (ATCC25922) and 16 µM (≈ 34.5 µg/mL) in the data set with S. aureus ATCC 29213 (ATCC 29213). For the same molecule, the “MIC, Control” value with E. coli ATCC25922 (ATCC25922) came to 2 µM (≈ 4.31 µg/mL); in the data set on S. aureus ATCC 29213 (ATCC 29213), 8 µM (≈ 17.2 µg/mL). Further, the “MIC, FeCl3” value was 4 µM (≈ 8.62 µg/mL) against E. coli ATCC25922 (ATCC25922) and 8 µM (≈ 17.2 µg/mL) in the data set with S. aureus ATCC 29213 (ATCC 29213). Further, the entries for the “MIC, Heat (100°C)” value in the data set with E. coli ATCC25922 (ATCC25922) and against S. aureus ATCC 29213 (ATCC 29213) were 8 µM (≈ 17.2 µg/mL) and 16 µM (≈ 34.5 µg/mL), respectively. The “MIC, KCl” value was 2 µM (≈ 4.31 µg/mL) against E. coli ATCC25922 (ATCC25922) and 8 µM (≈ 17.2 µg/mL) against S. aureus ATCC 29213 (ATCC 29213). The “MIC, MgCl2” value in the data set with E. coli ATCC25922 (ATCC25922) turned out to be 2 µM (≈ 4.31 µg/mL); with S. aureus ATCC 29213 (ATCC 29213) it was 8 µM (≈ 17.2 µg/mL). Also, the “MIC, NH4Cl” value against E. coli ATCC25922 (ATCC25922) was found to be 2 µM (≈ 4.31 µg/mL); in the data set on S. aureus ATCC 29213 (ATCC 29213), 8 µM (≈ 17.2 µg/mL). Also, the “MIC, NaCl” value was 4 µM (≈ 8.62 µg/mL) with E. coli ATCC25922 (ATCC25922) and 32 µM (≈ 69 µg/mL) in the data set on S. aureus ATCC 29213 (ATCC 29213). Moreover, the “MIC, ZnCl2” value with E. coli ATCC25922 (ATCC25922) was found to be 2 µM (≈ 4.31 µg/mL); in the data set with S. aureus ATCC 29213 (ATCC 29213) it was 8 µM (≈ 17.2 µg/mL). Further, the “MIC, pH 4.0” value with E. coli ATCC25922 (ATCC25922, pH 4) is on record as 4 μM; against S. aureus ATCC 29213 (ATCC 29213, pH 4), 8 μM. Also, the “MIC, pH 6.0” value is 4 μM with E. coli ATCC25922 (ATCC25922, pH 6) and 8 μM with S. aureus ATCC 29213 (ATCC 29213, pH 6). For the same molecule, the “MIC, pH 8.0” value stood at 4 μM with E. coli ATCC25922 (ATCC25922, pH 8) and 8 μM against S. aureus ATCC 29213 (ATCC 29213, pH 8). The “MIC, pH 10.0” value is 4 μM in the data set on E. coli ATCC25922 (ATCC25922, pH 10) and 16 μM in the data set with S. aureus ATCC 29213 (ATCC 29213, pH 10). Moreover, the results for the “Time to kill S. aureus” value in the data set with S. aureus (peptide at 1 × MIC) and in the data set on S. aureus (peptide at 2 × MIC) were 5 min and 10 min, respectively. Moreover, in [1], the “Retained time (HPLC retention time)” value came to 12.56 min.

Regarding IHFKWRRWKFHI-NH2 [Qna], the MIC amounted to 16 µM against E. coli UB1005; 32 µM with E. coli ATCC25922 (ATCC25922); 32 µM with S. aureus ATCC 29213 (ATCC 29213); 32 µM with S. pullorum C79-13; 32 µM against S. aureus ATCC 43300; 64 µM in the data set with S. faecalis ATCC 29212. Further, the MIC against B. subtilis CMCC 63501 stood at 64 µM; in data set [2] it was 32 µM; in the data set with S. typhimurium ATCC 7731, 32 µM; with B. pyocyaneum ATCC 27853, 32 µM. In the data set on hRBCs, the “MHC (minimum hemolytic concentration)” value is over 128 µM. The “GM (geometric mean of the MIC values)” value in [3] was 34.3 µM. For the same molecule, the Therapeutic index in data set [3] was 7.5.

On to IHKFWRRWFKHI-NH2 [Qa], for which the MIC in the data set with E. coli UB1005 came to 8 µM; in the data set on E. coli ATCC25922 (ATCC25922), 16 µM; in the data set on S. aureus ATCC 29213 (ATCC 29213) it was 8 µM; against S. pullorum C79-13 it was 16 µM; against S. aureus ATCC 43300 it was 16 µM; in the data set with S. faecalis ATCC 29212, 16 µM. Moreover, the minimum inhibitory concentration (MIC) is 32 µM in the data set with B. subtilis CMCC 63501, 16 µM in [2], 16 µM in the data set with S. typhimurium ATCC 7731 and 16 µM against B. pyocyaneum ATCC 27853. In addition, the “MHC (minimum hemolytic concentration)” value with hRBCs is over 128 µM. Moreover, the “GM (geometric mean of the MIC values)” value in data set [3] came to 14.9 µM. The molecule further registered a Therapeutic index in data set [3] of 17.2.
